The conditions of data set [1]: mice receiving the compound alone; highest concentration of UL1-012 (16 mg/kg i.v. every 6 h).
The test system of data set [2] is Human lung epithelial cells (A549). As to conditions: concentrations tested, up to approximately 150 times the therapeutic IC50 value.
The target of data set [3] is T1, pneumolysin (Streptococcus pneumoniae serotype 2, UniProt Q04IN8). Nature of the data set: Inhibition of pneumolysin-induced lactate dehydrogenase release from A549 cells. The format is cell-based.
Another data set addresses T2, Streptolysin O (SLO) (Streptococcus pyogenes serotype M3, UniProt P0DF97).
T2 sequence (P0DF97 34-571): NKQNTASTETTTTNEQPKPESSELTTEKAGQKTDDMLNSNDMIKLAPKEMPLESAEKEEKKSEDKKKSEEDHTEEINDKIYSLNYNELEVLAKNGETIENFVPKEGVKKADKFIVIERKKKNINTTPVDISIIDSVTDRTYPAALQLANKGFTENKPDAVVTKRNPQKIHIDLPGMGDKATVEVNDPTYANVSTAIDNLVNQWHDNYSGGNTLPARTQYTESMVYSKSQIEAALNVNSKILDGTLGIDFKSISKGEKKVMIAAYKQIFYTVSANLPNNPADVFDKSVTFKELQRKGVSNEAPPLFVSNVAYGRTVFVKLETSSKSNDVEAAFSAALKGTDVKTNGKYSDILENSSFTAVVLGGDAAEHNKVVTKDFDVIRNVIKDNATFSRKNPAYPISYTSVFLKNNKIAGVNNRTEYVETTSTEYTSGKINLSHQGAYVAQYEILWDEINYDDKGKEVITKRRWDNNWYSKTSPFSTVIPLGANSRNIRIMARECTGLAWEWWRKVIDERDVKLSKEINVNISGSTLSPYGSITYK
Nature of the data set: Inhibition of the haemolytic activity of Streptolysin O. The format is cell-based, Group A Streptococci. As to conditions: toxin SLO; haemolysis assay protocol of Section A.

The target in data set [4] is T3, S. pneumoniae cell lysate containing native pneumolysin (Streptococcus pneumoniae serotype 2, UniProt Q04IN8).
T3 construct: S. pneumoniae cell lysate containing native pneumolysin; endogenous in cells
Nature of the data set: Ex vivo meningitis assay: effect of bacterial lysate on ciliary function of cultured ependymal cells. The format is cell-based. Particulars: rat ependymal cells; lysate from penicillin-lysed S. pneumoniae; FIG. 2.B. An excerpt:
(§1) The ependymal ciliated cells line the cerebral ventricles of the brain and the central canal of the spinal cord and are covered with cilia responsible for the circulation of the cerebrospinal fluid (CSF) around the central nervous system. This layer acts as a selective brain barrier to and from the cerebrospinal fluid and plays a role in controlling the CSF volume. […] This model is based on culturing and differentiating ciliated ependymal cells from neonate rat brains, which recreate the in vivo situation, where cells lining the brain ventricles, are exposed to S. pneumoniae and its toxic products.
(§2) Ependymal cell cultures were prepared by the method previously described [Microb. Pathog. (1999) 27 303-309]. Tissue culture trays were coated with bovine fibronectin and incubated at 37° C. in 5% (v/v) CO2 for 2 h before use. […]
(§3) After approximately two weeks, the cells were fully ciliated and ready for experiments. […] Beating cilia were recorded before and after exposure over 30 min, with a digital high-speed video camera at a rate of 500 frames/s. The recorded video sequences were played back at reduced frame rates and the ciliary beat frequency (CBF) was determined by the following equation: […]

Data set [5] deals with T1, pneumolysin. Kind of data set: Inhibition of the haemolytic activity of pneumolysin (sheep erythrocytes). The format is cell-based. As to conditions: IC50, inhibition of pneumolysin-induced haemolysis of sheep erythrocytes.
Data set [6] relates to Streptococcus pneumoniae strain D39. Kind of data set: In vivo efficacy assay using a mouse pneumonia model. As to conditions: MF1 mice.
Another data set concerns the target Perfringolysin O (PFO) (Clostridium perfringens, UniProt P0C2E9). Kind of data set: cell-based.
In the next data set the target is Listeriolysin O (LLO) (Listeria monocytogenes serovar 1/2a, UniProt P13128). Kind of data set: Inhibition of the haemolytic activity of Listeriolysin O. Type of data set: cell-based. As to conditions: toxin LLO; haemolysis assay protocol of Section A.
A further data set deals with Anthrolysin O (ALO) (Bacillus anthracis, UniProt A0A6L7HHW7). Nature of the data set: cell-based.
The target of data set [7] is T1, pneumolysin. Kind of data set: Ex vivo meningitis assay: effect of pneumolysin on ciliary function of cultured ependymal cells. As to conditions: rat ependymal cells. The format is cell-based.
From the text: as §1, §2, §3

For another data set, the target named is Suilysin (SLY) (Streptococcus suis, UniProt Q55996). Kind of data set: Inhibition of the haemolytic activity of Suilysin. The format is cell-based. As to conditions: toxin SLY; haemolysis assay protocol of Section A.

The source of these data is patent publication US9221756B2, “Pyrrole derivatives” (priority 2011, dated 2015).

SMILES strings stand for the structures. Bounds are passed on as bounds.

T1 sequence (Q04IN8 whole entry): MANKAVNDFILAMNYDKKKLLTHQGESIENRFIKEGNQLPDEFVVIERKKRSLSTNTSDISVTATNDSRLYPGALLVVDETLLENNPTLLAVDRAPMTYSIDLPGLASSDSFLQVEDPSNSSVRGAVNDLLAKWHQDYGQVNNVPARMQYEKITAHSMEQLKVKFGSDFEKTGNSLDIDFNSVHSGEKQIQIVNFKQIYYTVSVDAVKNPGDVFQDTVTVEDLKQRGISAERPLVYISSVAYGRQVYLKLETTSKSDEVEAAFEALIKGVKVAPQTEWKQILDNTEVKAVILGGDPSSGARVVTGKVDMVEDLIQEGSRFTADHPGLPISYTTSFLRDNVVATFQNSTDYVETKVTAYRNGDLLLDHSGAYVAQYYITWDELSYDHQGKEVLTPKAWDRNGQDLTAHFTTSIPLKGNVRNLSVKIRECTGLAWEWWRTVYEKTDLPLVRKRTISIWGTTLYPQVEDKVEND
Chain of Suilysin (SLY) (Q55996 28-497 limits assumed): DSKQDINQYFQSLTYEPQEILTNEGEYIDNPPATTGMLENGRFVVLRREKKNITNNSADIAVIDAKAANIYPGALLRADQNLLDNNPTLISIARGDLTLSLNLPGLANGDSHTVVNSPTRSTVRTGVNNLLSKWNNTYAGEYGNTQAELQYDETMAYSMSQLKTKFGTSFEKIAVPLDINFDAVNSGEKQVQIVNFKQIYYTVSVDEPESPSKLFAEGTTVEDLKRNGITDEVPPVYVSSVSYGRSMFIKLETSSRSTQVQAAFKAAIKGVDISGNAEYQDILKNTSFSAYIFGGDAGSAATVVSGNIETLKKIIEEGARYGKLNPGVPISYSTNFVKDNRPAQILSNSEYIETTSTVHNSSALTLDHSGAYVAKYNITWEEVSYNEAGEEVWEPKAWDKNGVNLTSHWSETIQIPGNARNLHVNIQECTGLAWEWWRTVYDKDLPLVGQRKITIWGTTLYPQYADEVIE
Chain of Anthrolysin O (ALO) (A0A6L7HHW7 35-512 limits assumed): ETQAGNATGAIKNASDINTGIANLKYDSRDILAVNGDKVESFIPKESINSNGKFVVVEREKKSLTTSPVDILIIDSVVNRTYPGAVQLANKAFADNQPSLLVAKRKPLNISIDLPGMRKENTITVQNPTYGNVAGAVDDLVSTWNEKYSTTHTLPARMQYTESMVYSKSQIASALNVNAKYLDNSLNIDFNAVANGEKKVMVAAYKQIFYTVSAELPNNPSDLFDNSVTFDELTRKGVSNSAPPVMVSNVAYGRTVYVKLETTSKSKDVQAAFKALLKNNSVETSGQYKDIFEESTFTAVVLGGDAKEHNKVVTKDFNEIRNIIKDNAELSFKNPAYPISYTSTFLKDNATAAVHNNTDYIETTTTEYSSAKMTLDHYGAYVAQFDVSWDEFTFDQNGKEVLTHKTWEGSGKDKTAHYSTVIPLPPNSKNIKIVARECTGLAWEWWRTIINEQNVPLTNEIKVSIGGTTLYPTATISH
Chain of Perfringolysin O (PFO) (P0C2E9 29-500 limits assumed): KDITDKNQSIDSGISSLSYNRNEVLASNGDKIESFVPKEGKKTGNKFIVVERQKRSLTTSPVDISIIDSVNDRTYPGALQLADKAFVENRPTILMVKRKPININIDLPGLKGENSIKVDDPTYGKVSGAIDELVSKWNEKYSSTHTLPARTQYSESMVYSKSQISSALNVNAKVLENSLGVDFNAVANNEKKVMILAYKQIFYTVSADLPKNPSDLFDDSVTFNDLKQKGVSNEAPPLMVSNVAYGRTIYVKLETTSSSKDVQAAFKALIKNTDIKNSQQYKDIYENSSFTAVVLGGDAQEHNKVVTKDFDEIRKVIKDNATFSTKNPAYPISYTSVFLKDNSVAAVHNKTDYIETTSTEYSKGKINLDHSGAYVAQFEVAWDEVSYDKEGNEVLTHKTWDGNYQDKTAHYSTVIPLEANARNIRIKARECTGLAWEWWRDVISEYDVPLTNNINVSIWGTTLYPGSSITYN
Chain of Listeriolysin O (LLO) (P13128 25-529): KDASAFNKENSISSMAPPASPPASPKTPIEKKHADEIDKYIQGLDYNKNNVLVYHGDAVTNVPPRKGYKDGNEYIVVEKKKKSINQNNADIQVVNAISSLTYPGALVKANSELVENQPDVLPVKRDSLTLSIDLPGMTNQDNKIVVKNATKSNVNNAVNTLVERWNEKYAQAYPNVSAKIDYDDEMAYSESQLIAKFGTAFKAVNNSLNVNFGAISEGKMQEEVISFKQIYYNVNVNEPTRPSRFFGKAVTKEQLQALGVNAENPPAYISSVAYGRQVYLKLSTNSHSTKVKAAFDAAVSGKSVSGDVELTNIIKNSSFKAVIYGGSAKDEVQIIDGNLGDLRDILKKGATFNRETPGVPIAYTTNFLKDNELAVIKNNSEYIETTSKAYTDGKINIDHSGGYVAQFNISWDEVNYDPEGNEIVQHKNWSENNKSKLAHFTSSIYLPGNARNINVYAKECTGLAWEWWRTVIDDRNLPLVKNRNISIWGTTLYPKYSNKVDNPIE
T3 sequence (Q04IN8 whole entry): as the sequence (Q04IN8 whole entry) above

As to `CCOC(=O)c1c(O)c(O)c(C(=O)N(C)C)n1-c1ccc(OC)cc1` [UL1-012, ethyl 5-(dimethylcarbamoyl)-3,4-dihydroxy-1-(4-methoxyphenyl)-1H-pyrrole-2-carboxylate], the visible adverse effects entry in data set [1] is on record as “no visible adverse effects”. For the same molecule, in data set [2], the “cytotoxicity (LDH release, compound alone)” value is listed as “does not exhibit cytotoxicity”. In addition, the 50% inhibitory concentration (IC50) (as a rule, the concentration at which inhibition is half-maximal) on pneumolysin [3] was below 400 nM; on Streptolysin O (SLO), below 10 µM; against pneumolysin [5] (class symbols of Table 1), below 10000 nM; against pneumolysin [5] (specific values), 150 nM; against Perfringolysin O (PFO) it was below 10 µM; against Listeriolysin O (LLO) it was below 10 µM. Besides, the IC50 against Anthrolysin O (ALO) and against Suilysin (SLY) was below 10 µM in each case. In data set [4], the “ciliary beating frequency (CBF) in the presence of bacterial lysate” value is recorded as “significantly prevented the drop of the CBF”. Also, in [6] (4 mg/kg intravenously every 6 h, up to approximately 40 h after infection, p<0.05, FIG. 5), the survival entry is reported as “significant improvement in the survival”. In addition, the “survival, mice surviving at endpoint” value in data set [6] (16 mg/kg intravenously every 6 h, 72 h post infection, p<0.05, FIG. 6) is 50%. In addition, in [6] (16 mg/kg intravenously every 6 h, p<0.05 at 30 h, 36 h, 60 h and 66 h post-infection, FIG. 7), the “disease score (signs of disease)” value was “significant attenuation of the signs of the disease”. The “ciliary beating frequency (CBF) in the presence of pneumolysin” value at pneumolysin [7] (UL1-012 1.56 μM-25 μM, FIG. 2.A) is given as “No significant loss of the CBF”.

As to `CCOC(=O)c1c(O)c(O)c(C(=O)OCC)n1-c1ccc(OC)cc1` [UL2-001, diethyl 3,4-dihydroxy-1-(4-methoxyphenyl)-1H-pyrrole-2,5-dicarboxylate], the IC50 against Streptolysin O (SLO) is 20 to 60 µM; against pneumolysin [5] (class symbols of Table 1) it was below 10000 nM; at pneumolysin [5] (specific values), 300 nM; against Perfringolysin O (PFO), below 10 µM; against Listeriolysin O (LLO), below 10 µM; at Anthrolysin O (ALO) it was below 10 µM. The IC50 against Suilysin (SLY) is below 10 µM. In addition, the percentage of survival in data set [6] (0.8 mg/kg intranasally every 6 h, 36 h to 60 h post-infection, p<0.05, FIG. 9) is recorded as 60%. Further, the “ciliary beating frequency (CBF) in the presence of pneumolysin” value on pneumolysin [7] (UL2-001 2.00 μM, FIG. 3) was “No significant loss of the CBF”.
